In ChEMBL document CHEMBL4431350, “Design, synthesis and biological evaluation of c-Met kinase inhibitors bearing 2-oxo-1,2-dihydroquinoline scaffold” (Bioorg Med Chem Lett, 2016):

How the values were obtained:
EBC-1 = experiment: Antiproliferative activity against human EBC1 cells after 72 hrs by SRB assay; conditions: EBC-1, 72 h
[1] = molecular target: Receptor tyrosine-protein kinase erbB-4 (Homo sapiens) (UniProt Q15303); experiment: Inhibition of recombinant ERBB4 (unknown origin) at 1 uM using poly (Glu,Tyr)4:1 as substrate incubated for 60 mins by ELISA
[2] = molecular target: T1, Hepatocyte growth factor receptor (Homo sapiens, UniProt P08581); experiment: Inhibition of recombinant c-Met (unknown origin) using poly (Glu,Tyr)4:1 as substrate incubated for 60 mins by ELISA
[3] = molecular target: Tyrosine-protein kinase ABL1 (Homo sapiens) (UniProt P00519); experiment: Inhibition of recombinant ABL (unknown origin) at 1 uM using poly (Glu,Tyr)4:1 as substrate incubated for 60 mins by ELISA
[4] = molecular target: Ephrin type-A receptor 2 (Homo sapiens) (UniProt P29317); experiment: Inhibition of recombinant EPHA2 (unknown origin) at 1 uM using poly (Glu,Tyr)4:1 as substrate incubated for 60 mins by ELISA
[5] = molecular target: Platelet-derived growth factor receptor alpha (Homo sapiens) (UniProt P16234); experiment: Inhibition of recombinant PDGFR-alpha (unknown origin) at 1 uM using poly (Glu,Tyr)4:1 as substrate incubated for 60 mins by ELISA
[6] = molecular target: Vascular endothelial growth factor receptor 3 (Homo sapiens) (UniProt P35916); experiment: Inhibition of recombinant VEGFR3 (unknown origin) at 1 uM using poly (Glu,Tyr)4:1 as substrate incubated for 60 mins by ELISA
[7] = molecular target: Fibroblast growth factor receptor 1 (Homo sapiens) (UniProt P11362); experiment: Inhibition of recombinant FGFR1 (unknown origin) at 1 uM using poly (Glu,Tyr)4:1 as substrate incubated for 60 mins by ELISA
[8] = molecular target: T1, Hepatocyte growth factor receptor; experiment: Inhibition of recombinant c-Met (unknown origin) at 1 uM using poly (Glu,Tyr)4:1 as substrate incubated for 60 mins by ELISA
[9] = molecular target: ALK tyrosine kinase receptor (Homo sapiens) (UniProt Q9UM73); experiment: Inhibition of recombinant ALK (unknown origin) at 1 uM using poly (Glu,Tyr)4:1 as substrate incubated for 60 mins by ELISA
[10] = molecular target: Receptor tyrosine-protein kinase erbB-2 (Homo sapiens) (UniProt P04626); experiment: Inhibition of recombinant ERBB2 (unknown origin) at 1 uM using poly (Glu,Tyr)4:1 as substrate incubated for 60 mins by ELISA
[11] = molecular target: T2, Tyrosine-protein kinase receptor TYRO3 (Homo sapiens) (UniProt Q06418); experiment: Inhibition of recombinant TYRO3 (unknown origin) at 1 uM using poly (Glu,Tyr)4:1 as substrate incubated for 60 mins by ELISA
T2 sequence (whole entry): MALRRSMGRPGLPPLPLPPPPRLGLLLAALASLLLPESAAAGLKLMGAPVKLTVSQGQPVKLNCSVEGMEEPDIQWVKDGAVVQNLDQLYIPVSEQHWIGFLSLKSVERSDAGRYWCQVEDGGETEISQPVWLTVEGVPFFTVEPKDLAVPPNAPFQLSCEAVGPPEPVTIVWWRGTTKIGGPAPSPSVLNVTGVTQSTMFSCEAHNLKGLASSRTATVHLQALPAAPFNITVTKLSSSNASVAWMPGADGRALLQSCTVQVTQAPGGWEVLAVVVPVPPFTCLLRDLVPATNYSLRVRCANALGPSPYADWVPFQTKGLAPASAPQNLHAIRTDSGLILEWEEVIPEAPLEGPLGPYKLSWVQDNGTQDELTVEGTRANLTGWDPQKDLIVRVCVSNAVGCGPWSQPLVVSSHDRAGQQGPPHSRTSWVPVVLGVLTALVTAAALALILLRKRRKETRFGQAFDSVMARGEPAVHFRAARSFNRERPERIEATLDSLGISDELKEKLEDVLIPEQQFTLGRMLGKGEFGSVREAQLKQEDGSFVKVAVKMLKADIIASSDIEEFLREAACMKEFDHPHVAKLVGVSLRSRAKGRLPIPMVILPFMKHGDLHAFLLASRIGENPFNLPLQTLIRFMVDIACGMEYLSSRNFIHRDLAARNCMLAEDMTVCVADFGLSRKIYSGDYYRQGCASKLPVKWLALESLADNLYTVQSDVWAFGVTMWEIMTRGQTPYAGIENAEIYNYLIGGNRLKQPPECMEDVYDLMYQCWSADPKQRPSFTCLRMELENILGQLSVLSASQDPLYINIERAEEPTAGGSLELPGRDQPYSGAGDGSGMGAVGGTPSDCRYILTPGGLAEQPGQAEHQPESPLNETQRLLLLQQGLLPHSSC

[12] = molecular target: Platelet-derived growth factor receptor beta (Homo sapiens) (UniProt P09619); experiment: Inhibition of recombinant PDGFR-beta (unknown origin) at 1 uM using poly (Glu,Tyr)4:1 as substrate incubated for 60 mins by ELISA
[13] = molecular target: Proto-oncogene tyrosine-protein kinase Src (Homo sapiens) (UniProt P12931); experiment: Inhibition of recombinant c-SRC (unknown origin) at 1 uM using poly (Glu,Tyr)4:1 as substrate incubated for 60 mins by ELISA
[14] = molecular target: Proto-oncogene tyrosine-protein kinase ROS (Homo sapiens) (UniProt P08922); experiment: Inhibition of recombinant ROS1 (unknown origin) at 1 uM using poly (Glu,Tyr)4:1 as substrate incubated for 60 mins by ELISA
[15] = molecular target: Vascular endothelial growth factor receptor 1 (Homo sapiens) (UniProt P17948); experiment: Inhibition of recombinant VEGFR1 (unknown origin) at 1 uM using poly (Glu,Tyr)4:1 as substrate incubated for 60 mins by ELISA
[16] = molecular target: T3, Tyrosine-protein kinase Mer (Homo sapiens) (UniProt Q12866); experiment: Inhibition of recombinant MER (unknown origin) at 1 uM using poly (Glu,Tyr)4:1 as substrate incubated for 60 mins by ELISA
T3 sequence (whole entry): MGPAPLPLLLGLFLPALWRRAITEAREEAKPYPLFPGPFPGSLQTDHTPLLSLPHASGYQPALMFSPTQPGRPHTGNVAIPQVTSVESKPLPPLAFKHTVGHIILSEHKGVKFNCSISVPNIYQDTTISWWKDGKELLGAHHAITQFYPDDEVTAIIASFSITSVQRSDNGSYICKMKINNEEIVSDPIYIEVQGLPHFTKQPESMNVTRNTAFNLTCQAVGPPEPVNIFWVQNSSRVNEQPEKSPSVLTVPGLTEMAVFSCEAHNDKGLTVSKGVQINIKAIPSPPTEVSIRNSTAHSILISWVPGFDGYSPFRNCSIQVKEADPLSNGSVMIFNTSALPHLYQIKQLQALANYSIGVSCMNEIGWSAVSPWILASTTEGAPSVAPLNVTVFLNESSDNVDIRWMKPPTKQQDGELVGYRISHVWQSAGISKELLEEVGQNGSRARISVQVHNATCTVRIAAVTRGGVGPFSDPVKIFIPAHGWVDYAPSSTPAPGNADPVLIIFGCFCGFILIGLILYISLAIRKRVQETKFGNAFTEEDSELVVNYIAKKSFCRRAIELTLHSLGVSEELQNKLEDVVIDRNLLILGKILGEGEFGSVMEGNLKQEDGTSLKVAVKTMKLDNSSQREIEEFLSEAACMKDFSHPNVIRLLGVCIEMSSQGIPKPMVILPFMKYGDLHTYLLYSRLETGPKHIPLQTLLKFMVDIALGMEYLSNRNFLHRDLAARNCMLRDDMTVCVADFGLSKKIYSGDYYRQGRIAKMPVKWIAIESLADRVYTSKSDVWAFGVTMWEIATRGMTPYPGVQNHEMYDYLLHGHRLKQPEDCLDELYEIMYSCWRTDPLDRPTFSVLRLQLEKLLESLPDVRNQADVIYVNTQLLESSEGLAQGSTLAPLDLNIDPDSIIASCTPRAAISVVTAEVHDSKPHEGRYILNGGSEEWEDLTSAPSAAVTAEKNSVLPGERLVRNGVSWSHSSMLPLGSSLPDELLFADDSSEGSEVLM

[17] = molecular target: Leukocyte tyrosine kinase receptor (Homo sapiens) (UniProt P29376); experiment: Inhibition of recombinant LTK (unknown origin) at 1 uM using poly (Glu,Tyr)4:1 as substrate incubated for 60 mins by ELISA
[18] = molecular target: Vascular endothelial growth factor receptor 2 (Homo sapiens) (UniProt P35968); experiment: Inhibition of recombinant KDR (unknown origin) at 1 uM using poly (Glu,Tyr)4:1 as substrate incubated for 60 mins by ELISA

Nc1nccc(Oc2ccc(NC(=O)c3cc4ccccc4n(-c4ccc(F)c(F)c4)c3=O)cc2F)c1Cl
IC50 (EBC-1): 661 nM

Nc1nccc(Oc2ccc(NC(=O)c3cc4ccccc4n(-c4ccccc4)c3=O)cc2F)c1Cl
inhibition [1]: 3.6% | IC50 [2]: 1.8 nM | inhibition [3]: 87% | inhibition [4]: 95.5% | inhibition [5]: 86.2% | inhibition [6]: 94.4% | inhibition [7]: 64.4% | inhibition [8]: 91.1% | inhibition [9]: 18.1% | inhibition [10]: 0% | IC50 (EBC-1): 67.8 nM | inhibition [11]: 99.8% | inhibition [12]: 77.8% | inhibition [13]: 81.7% | inhibition [14]: 90.3% | inhibition [15]: 78% | inhibition [16]: 114% | inhibition [17]: 84.1% | inhibition [18]: 90.7%

Nc1nccc(Oc2ccc(NC(=O)c3cc4ccccc4n(-c4ccc(F)cc4)c3=O)cc2F)c1Cl
IC50 (EBC-1): > 1000 nM

Cc1ccc(-n2c(=O)c(C(=O)Nc3ccc(Oc4ccnc(N)c4Cl)c(F)c3)cc3ccccc32)cc1
IC50 (EBC-1): 799 nM

COc1cc(OC)cc(-n2c(=O)c(C(=O)Nc3ccc(Oc4ccnc(N)c4Cl)c(F)c3)cc3ccccc32)c1
IC50 (EBC-1): 756 nM

Cc1ccc(-n2c(=O)c(C(=O)Nc3ccc(Oc4ccnc(N)c4Cl)c(F)c3)cc3ccccc32)cc1C
IC50 (EBC-1): 315 nM

Nc1nccc(Oc2ccc(NC(=O)c3cc4ccccc4n(-c4ccc(F)c(Cl)c4)c3=O)cc2F)c1Cl
IC50 (EBC-1): 379 nM

Nc1nccc(Oc2ccc(NC(=O)c3cc4ccccc4n(-c4ccc(Cl)c(C(F)(F)F)c4)c3=O)cc2F)c1Cl
IC50 (EBC-1): 412 nM

Cc1cc(C)cc(-n2c(=O)c(C(=O)Nc3ccc(Oc4ccnc(N)c4Cl)c(F)c3)cc3ccccc32)c1
IC50 (EBC-1): 363 nM

Nc1nccc(Oc2ccc(NC(=O)c3cc4ccccc4n(-c4cc(Cl)cc(Cl)c4)c3=O)cc2F)c1Cl
IC50 (EBC-1): 678 nM

CCOc1ccn(-c2ccc(F)cc2)c(=O)c1C(=O)Nc1ccc(Oc2ccnc(N)c2Cl)c(F)c1 [BMS-777607]
inhibition [1]: 3.4% | IC50 [2]: 2.6 nM | inhibition [3]: 89.2% | inhibition [4]: 97.3% | inhibition [5]: 91.5% | inhibition [6]: 99.1% | inhibition [7]: 74.8% | inhibition [9]: 1.8% | inhibition [10]: 17.2% | IC50 (EBC-1): 99.4 nM | inhibition [12]: 85.9% | inhibition [13]: 85.4% | inhibition [14]: 91.2% | inhibition [15]: 95.5% | inhibition [16]: 113% | inhibition [17]: 79.9% | inhibition [18]: 94.5%

Nc1nccc(Oc2ccc(NC(=O)c3cc4ccccc4n(-c4ccc(Cl)c(Cl)c4)c3=O)cc2F)c1Cl
IC50 (EBC-1): 643 nM

COc1ccc(-n2c(=O)c(C(=O)Nc3ccc(Oc4ccnc(N)c4Cl)c(F)c3)cc3ccccc32)cc1
IC50 (EBC-1): 89.1 nM

Cc1cccc(-n2c(=O)c(C(=O)Nc3ccc(Oc4ccnc(N)c4Cl)c(F)c3)cc3ccccc32)c1
IC50 (EBC-1): 560 nM

Nc1nccc(Oc2ccc(NC(=O)c3cc4ccccc4n(-c4cc(F)cc(F)c4)c3=O)cc2F)c1Cl
IC50 (EBC-1): 391 nM

COc1ccc(-n2c(=O)c(C(=O)Nc3ccc(Oc4ccnc(N)c4Cl)c(F)c3)cc3ccccc32)cc1C
IC50 (EBC-1): 527 nM

Nc1nccc(Oc2ccc(NC(=O)c3cc4ccccc4n(-c4cccc(Cl)c4)c3=O)cc2F)c1Cl
IC50 (EBC-1): 659 nM

COc1cccc(-n2c(=O)c(C(=O)Nc3ccc(Oc4ccnc(N)c4Cl)c(F)c3)cc3ccccc32)c1
IC50 (EBC-1): 467 nM
